Data set [1] concerns the target 5-hydroxytryptamine receptor 7 (Homo sapiens, UniProt P34969). Briefly: Binding affinity to 5HT7 receptor.
A short description of data set [2]: Drug metabolism in Wistar rat liver microsomes at 2.5 uM at 30 mins by LC-MS/MS analysis. In kind it is ADME, Microsome. The note with it: read-out: Drug metabolism.
The target of a further data set is Cytochrome P450 3A4 (Homo sapiens, UniProt P08684). Briefly: Inhibition of CYP3A4 in human liver microsomes using midazolam as substrate after 5 mins by LC-MS/MS analysis in presence of NADPH.
Cytochrome P450 3A4, sequence (P08684 whole entry): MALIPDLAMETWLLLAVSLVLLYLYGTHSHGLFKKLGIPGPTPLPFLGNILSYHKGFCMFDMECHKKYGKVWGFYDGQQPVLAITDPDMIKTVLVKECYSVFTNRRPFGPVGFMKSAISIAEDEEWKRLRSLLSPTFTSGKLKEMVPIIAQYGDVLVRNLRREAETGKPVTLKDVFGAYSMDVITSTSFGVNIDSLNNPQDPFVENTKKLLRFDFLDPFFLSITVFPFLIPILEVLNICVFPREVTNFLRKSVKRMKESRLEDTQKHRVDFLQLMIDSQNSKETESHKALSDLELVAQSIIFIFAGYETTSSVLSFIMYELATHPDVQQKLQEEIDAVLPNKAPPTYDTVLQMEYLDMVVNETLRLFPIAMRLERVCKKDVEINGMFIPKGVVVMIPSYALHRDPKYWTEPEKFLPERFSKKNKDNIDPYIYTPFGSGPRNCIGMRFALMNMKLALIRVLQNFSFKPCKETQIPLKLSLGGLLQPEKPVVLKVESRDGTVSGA
The nature of data set [3]: AUC (0 to 24 hrs) in Wistar rat at 5 mg/kg, iv. In kind it is ADME, organism-based. Also noted: time < 24 hr, dose 5 mg/kg, route intravenous. The note with it: plasma.
Data set [4] in a line: Tmax in fasted beagle dog at 3 mg/kg, po. In kind it is ADME, organism-based, Canis lupus familiaris. Also noted: dose 3 mg/kg, route oral. The note with it: in vivo.
A short description of data set [5]: Cmax in fasted beagle dog at 3 mg/kg, po. In kind it is ADME, organism-based, Canis lupus familiaris. Also noted: dose 3 mg/kg, route oral. The note with it: in vivo.
A short description of data set [6]: Clearance in beagle dog at 1 mg/kg, iv. In kind it is ADME, organism-based, Canis lupus familiaris. Also noted: dose 1 mg/kg, route intravenous. The note with it: in vivo.
The nature of data set [7]: AUC (0 to 24 hrs) in beagle dog at 1 mg/kg, iv. In kind it is ADME, organism-based, Canis lupus familiaris. Also noted: time < 24 hr, dose 1 mg/kg, route intravenous. The following applies: plasma.
The target of data set [8] is T1, 5-hydroxytryptamine receptor 1A (Homo sapiens, UniProt P08908).
T1 sequence (P08908 whole entry): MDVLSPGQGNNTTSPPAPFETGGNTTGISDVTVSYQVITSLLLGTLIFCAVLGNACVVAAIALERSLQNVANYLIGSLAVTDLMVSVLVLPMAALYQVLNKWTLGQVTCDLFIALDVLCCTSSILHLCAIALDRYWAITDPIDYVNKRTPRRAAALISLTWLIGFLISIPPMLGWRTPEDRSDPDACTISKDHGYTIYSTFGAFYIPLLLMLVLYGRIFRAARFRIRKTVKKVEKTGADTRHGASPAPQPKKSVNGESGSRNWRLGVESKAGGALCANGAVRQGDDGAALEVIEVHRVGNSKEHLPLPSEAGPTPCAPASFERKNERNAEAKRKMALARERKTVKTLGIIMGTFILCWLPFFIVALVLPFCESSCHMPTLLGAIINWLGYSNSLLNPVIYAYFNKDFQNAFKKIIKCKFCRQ
Nature of the data set: Binding affinity to 5HT1A receptor.

Here are results for one compound from ChEMBL document CHEMBL2176989, “Design, synthesis, and pharmacological evaluation of piperidin-4-yl amino aryl sulfonamides: novel, potent, selective, orally active, and brain penetrant 5-HT₆ receptor antagonists” (J Med Chem, 2012).

5-hydroxytryptamine receptor 7, sequence (P34969 whole entry): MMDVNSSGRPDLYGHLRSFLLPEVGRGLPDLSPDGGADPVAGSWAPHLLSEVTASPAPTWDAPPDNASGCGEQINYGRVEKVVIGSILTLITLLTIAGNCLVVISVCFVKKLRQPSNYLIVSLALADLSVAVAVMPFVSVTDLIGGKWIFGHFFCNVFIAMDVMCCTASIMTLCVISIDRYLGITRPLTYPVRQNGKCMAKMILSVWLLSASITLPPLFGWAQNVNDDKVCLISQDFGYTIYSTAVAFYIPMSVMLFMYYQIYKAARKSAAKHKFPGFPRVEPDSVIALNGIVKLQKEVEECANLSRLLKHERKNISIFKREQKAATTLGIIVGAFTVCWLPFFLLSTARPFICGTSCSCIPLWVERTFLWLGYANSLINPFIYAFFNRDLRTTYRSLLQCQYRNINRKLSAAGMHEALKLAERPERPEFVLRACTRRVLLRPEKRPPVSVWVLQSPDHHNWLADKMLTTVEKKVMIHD

The compound `COc1ccc(S(=O)(=O)n2cc(C)c3cc(Cl)cnc32)cc1NC1CCN(C)CC1` had an inhibitory constant (Ki) in data set [1] of 1.96 µM. In [2], the metabolised at 0.5 h, 2.5 µM was determined as 76%. The IC50 on Cytochrome P450 3A4 was 10 µM. Also, the AUC(0-t) at 24 h amounted to 1310 ng·h/mL in [3] and 1400 ng·h/mL in data set [7]. Also, in data set [4], the Tmax came out at 1.7 h. Further, the Cmax in [5] was determined as 549 ng/mL. The same compound showed a clearance in [6] of 12 mL/min/kg. The same compound had an EC50 in data set [8] of over 10 µM.
